# Entries after “also recorded” stand apart in the source; their conditions may differ. Like-named read-outs stand apart in the source and are kept apart here.
# Experiments:
# Type in all cases: physicochemical
# [1] = Hygroscopic behaviour, water sorption isotherms (DVS-1); conditions: 25° C.; for hygroscopicity (in words): sorption isotherms 10% to 90% r.h.; for uptake of water: up to 90% r.h.
# Method: To study the hygroscopic behaviour of this material, sorption isotherms are registered on a DVS-1 water sorption monitor from Surface Measurement Systems. Adsorption and desorption isotherms are performed at 25° C. with 10% r.h. step intervals ranging from 10% r.h. up to 90% r.h.
# [2] = Solid state stability under harsh stress conditions
# Text: Under all applied severe stress conditions only very low or minor decomposition (Σ</=about 6% degradation impurities measured as peak area percentage from HPLC-diagrams using a standard gradient technique) can be observed.
# [3] = Solubility of the saturated solution in aqueous media; conditions: thermodynamic from solid, 48 h shaking at room temperature, read-out: solubility RT - values
# [4] = Intrinsic dissolution rate in aqueous media (rotating disc method); conditions: 37° C., 200 rpm
# Method: The intrinsic dissolution rate of the crystalline hydrochloride salt form of (3R,9S)-4-isopropyl-7,7-dimethyl-3-(4-(trifluoromethyl)phenyl)-2′,3′,5′,6,6′,7,8,9-octahydro-3H-spiro[furo[3,4-c]quinoline-1,4′-pyran]-9-ol is determined in aqueous media covering a range of pH 1.1-7.4 using the rotating disc method which maintains a constant surface area. 5 mg drug substance is compressed to form a disc at 356.1 N for 60 s. These discs are mounted to specially designed sample holders which fit into a Sotax dissolution tester. The dissolution media (37° C.) are stirred at 200 rpm. Samples are automatically withdrawn every second minute from the dissolution vessel and assayed via UV spectrophotometry. The intrinsic dissolution rate expressed in μg/cm^2/min is calculated using the slope of the concentration versus time plot and from the linear portion of the slope of the dissolution curve, volume of dissolution medium (35 ml) and area (diameter: 2 mm) of the exposed disk.
smiles,measurement,setting,value
"CC(C)c1nc2c(c3c1[C@@H](c1ccc(C(F)(F)F)cc1)OC31CCOCC1)[C@@H](O)CC(C)(C)C2 [compound of formula (I), (3R,9S)-4-isopropyl-7,7-dimethyl-3-(4-(trifluoromethyl)phenyl)-2′,3′,5′,6,6′,7,8,9-octahydro-3H-spiro[furo[3,4-c]quinoline-1,4′-pyran]-9-ol]",hygroscopicity (in words),[1],not hygroscopic
same,uptake of water,[1],about 0.2%
"Br.CC(C)c1nc2c(c3c1[C@@H](c1ccc(C(F)(F)F)cc1)OC31CCOCC1)[C@@H](O)CC(C)(C)C2 [crystalline hydrobromide salt form, Hydrogen Bromide Salt of (3R,9S)-4-isopropyl-7,7-dimethyl-3-(4-(trifluoromethyl)phenyl)-2′,3′,5′,6,6′,7,8,9-octahydro-3H-spiro[furo[3,4-c]quinoline-1,4′-pyran]-9-ol]",hygroscopicity (in words),[1],not hygroscopic
same,uptake of water,[1],about 0.9%
"CC(C)c1nc2c(c3c1[C@@H](c1ccc(C(F)(F)F)cc1)OC31CCOCC1)[C@@H](O)CC(C)(C)C2.Cl [crystalline hydrochloride salt form, Hydrogen Chloride Salt of (3R,9S)-4-isopropyl-7,7-dimethyl-3-(4-(trifluoromethyl)phenyl)-2′,3′,5′,6,6′,7,8,9-octahydro-3H-spiro[furo[3,4-c]quinoline-1,4′-pyran]-9-ol]","decomposition, sum of degradation impurities (peak area percentage from HPLC)","[2]; all stress conditions: 24 hours at 105° C., 72 hours at 60° C. and 70% rel. humid., 24 hours in a Xenotester",≤ 6%
same,solid state stability (in words),[2]; harsh stress conditions for solid state,stable in the solid state
same,solubility at 48 h,"[3]; McIlvaine buffer, aqueous buffer, McIlvaine pH 2.2, intrinsic pH 2.0",1600 µg/mL
same,solubility at 48 h,"[3]; McIlvaine buffer, aqueous buffer, McIlvaine pH 3.0, intrinsic pH 3.0",400 µg/mL
same,solubility at 48 h,"[3]; McIlvaine buffer, aqueous buffer, McIlvaine pH 4.0, intrinsic pH 4.0",90 µg/mL
same,solubility at 48 h,"[3]; McIlvaine buffer, aqueous buffer, McIlvaine pH 4.5, intrinsic pH 4.6",30 µg/mL
same,solubility at 48 h,"[3]; McIlvaine buffer, aqueous buffer, McIlvaine pH 5.0, intrinsic pH 5.1",3 µg/mL
same,solubility at 48 h,"[3]; McIlvaine buffer, aqueous buffer, McIlvaine pH 6.0, intrinsic pH 6.2",< 3 µg/mL
same,solubility at 48 h,"[3]; McIlvaine buffer, aqueous buffer, McIlvaine pH 6.8, intrinsic pH 7.0",< 3 µg/mL
same,solubility at 48 h,"[3]; McIlvaine buffer, aqueous buffer, McIlvaine pH 7.4, intrinsic pH 7.7, determined by LC/MS",0.26 µg/mL
same,solubility at 48 h,"[3]; Sorensen buffer, aqueous buffer, Sorensen pH 10.0, intrinsic pH 9.6",< 3 µg/mL
same,solubility at 48 h,"[3]; acetate buffer, aqueous buffer, Acetate pH 3.0, intrinsic pH 3.0",200 µg/mL
same,solubility at 48 h,"[3]; acetate buffer, aqueous buffer, Acetate pH 4.0, intrinsic pH 4.2",60 µg/mL
same,solubility at 48 h,"[3]; acetate buffer, aqueous buffer, Acetate pH 5.0, intrinsic pH 5.3",6 µg/mL
same,solubility at 48 h,"[3]; simulated gastric fluid, 0.01N HCl, intrinsic pH 1.9",1900 µg/mL
same,solubility at 48 h,"[3]; simulated gastric fluid, 0.1N HCl, intrinsic pH 0.9",4100 µg/mL
same,solubility at 48 h,"[3]; FaSSIF (Fasted State Simulated Intestinal), intrinsic pH 6.5",20 µg/mL
same,solubility at 48 h,"[3]; FeSSIF (Fed State Simulated Intestinal), intrinsic pH 5.0",30 µg/mL
same,solubility at 48 h,"[3]; water, intrinsic pH 1.6",3100 µg/mL
same,dissolution rate,[4]; 0.1N HCl,230 μg/cm^2/min
same,dissolution rate,[4]; pH 2.2 (McIlvaine),250 μg/cm^2/min
same,dissolution rate,[4]; pH 3.0 (McIlvaine),60 μg/cm^2/min
same,dissolution rate,[4]; pH 4.0 (McIlvaine),10 μg/cm^2/min
same,dissolution rate,[4]; pH 4.5 (McIlvaine),10 μg/cm^2/min
same,dissolution rate,[4]; water,10 μg/cm^2/min
same,hygroscopicity (in words),[1],not hygroscopic; also recorded: non-hygroscopic
